According to US20140243415A1, “COMPOUNDS INHIBITING GALECTIN-1 EXPRESSION, CANCER CELL PROLIFERATION, INVASION, AND TUMORIGENESIS” (ONCOETHIX SA, priority 2011, published 2014):

What was measured:
[1] = tested on: COL0205-S and COL0205-R cells; assay: Antiproliferative effects, epithelial vs mesenchymal COLO205; assay type: cell-based, human
From the text: FIG. 2. Epithelial-to-mesenchymal differentiation and OTX-008 sensitivity. A—Correlations between galectin-1 (LGALS1) and vimentin, E-cadherin (CDH1) and N-cadherin (CDH2) relative mRNA expression. B—Correlations between OTX-008 IC50s and vimentin, E-cadherin (CDH1) and N-cadherin (CDH2) relative mRNA expression. C—Antiproliferative effects of OTX-008 in epithelial COLO205-S and mesenchymal COLO205-R colon cancer cells. D—Antiproliferative effects of OTX-008 in SNAIL-inducible colon cancer cell lines. E—Antiproliferative effects of OTX-008 in shWISP breast cancer cell lines.
Cell survival was determined using the MTT assay (3-[4,5-dimethylthiazol-2-yl]-2,5-diphenyltetrazolium bromide; Sigma, Saint-Quentin Fallavier, France). The conversion of yellow water-soluble tetrazolium MTT into purple insoluble formazan is catalyzed by mitochondrial dehydrogenases and used to estimate the number of viable cells. In brief, cells were seeded in 96-well tissue culture plates at a density of 2×10^3 cells/well. […] After incubation, the supernatant was discarded, insoluble formazan precipitates were dissolved in 0.1 ml of DMSO and the absorbance was measured at 560 nm by use of a microplate reader (Thermo, France). […] IC50's were determined as the halves of maximal inhibitory drug concentration for each cell line. […]

galectin-1 = molecular target: T1, galectin-1 (Homo sapiens, UniProt P09382); assay: Western blot of galectin-1 in SQ20B cells; assay type: cell-based; conditions: 3 μM OTX-008, 48 and 72 h exposure
T1 construct: Western Blot of galectin-1 on SQ20B cells treated with 3 μM OTX-008 for 24 h, 48 h and 72 h; endogenous in cells; host or cells: SQ20B (ATCC)
Experimental: FIG. 3. Effects of OTX-008 on galectin-1 expression and localization. A—Western Blot of galectin-1 on SQ20B cells treated with 3 μM OTX-008 for 24 h, 48 h and 72 h. B and C—Immunofluorescence of galectin-1 on SQ20B cells treated with 3 μM OTX-008 for 24 and 48 h. B—OTX-008 treatment decreases galectin-1 immunostaining in SQ20B cells. C—Galectin-1 translocates into the nucleus after OTX-008 exposure. D—Western Blot of p-AKTser473, AKT, p-S6, p-ERK1/2, ERK and p-PKCα in SQ20B cells treated with 3 μM OTX-008 for 10 min, 1 h, 2 h, 5 h and 24 h.
FIG. 4. OTX-008-induced galectin-1 oxydation and degradation by the proteosome system A—Western Blot of galectin-1 on SQ20B cells treated 48 h with 10 μM N-acetylcysteine (NAC), 55 μM β-mercaptoethanol (βME), 1 mM Tempol and 10 μM co-enzyme Q10 (Q10) with or without 3 μM OTX-008. B—Western Blot of galectin-1 on SQ20B cells treated 48 h with 3 μM OTX-008, pretreated 2 h with proteasome inhibitor Bortezomib (10 nM) and then treated 48 h with 3 μM OTX-008 (BTZ—OTX-008) or treated 48 h with 10 nM Bortezomib+3 μM OTX-008 (BTZ+OTX-008).
Cells were lysed in buffer containing 50 mM HEPES (pH 7.6), 150 mM NaCl, 1% Triton X-100, 2 mM sodium vanadate, 100 mM NaF, and 0.4 mg/ml phenylmethylsulfonyl fluoride. Equal amounts of protein (30 μg/lane) were subjected to SDS-PAGE and transferred to nitrocellulose membranes. […]

GAL1 mRNA = assay: Real-time RT-PCR of GAL1 mRNA; assay type: cell-based, human; conditions: OTX-008 exposed cancer cells
From the text: The theoretical and practical aspects of real-time quantitative RT-PCR using the ABI Prism 7900 Sequence Detection System (Perkin-Elmer Applied Biosystems, Foster City, Calif., USA) have been described in detail elsewhere Results were expressed as n-fold differences in target gene expression relative to the TBP gene (an endogenous RNA control) and relative to a calibrator (1× sample), consisting of the cell line sample from our tested series that contained the smallest amount of target gene mRNA. Experiments were performed in duplicate.

chk1, chk2, and cdc25C = assay: chk1, chk2 and cdc25C phosphorylation in SQ20B; assay type: cell-based, human; conditions: OTX-008-treated SQ20B cells
endothelial cell = endothelial cell proliferation, migration, chick embryo chorioallantoic membrane assays; cited from earlier work

T1 sequence (P09382 whole entry): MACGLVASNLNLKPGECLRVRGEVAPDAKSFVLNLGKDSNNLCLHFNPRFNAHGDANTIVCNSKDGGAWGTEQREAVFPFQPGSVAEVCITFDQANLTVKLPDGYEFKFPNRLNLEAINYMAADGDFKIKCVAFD

CN(C)CCNC(=O)COc1c2cccc1Cc1cccc(c1OCC(=O)NCCN(C)C)Cc1cccc(c1OCC(=O)NCCN(C)C)Cc1cccc(c1OCC(=O)NCCN(C)C)C2 [OTX-008]
activity in epithelial vs mesenchymal cells [1]: markedly more active in COL0205-S cells than in COL0205-R cells | galectin-1 protein expression (galectin-1): decreased galectin-1 protein expression | GAL1 mRNA expression (GAL1 mRNA): No change | chk1, chk2, and cdc25C phosphorylation levels (chk1, chk2, and cdc25C): Mild to no changes | angiogenesis inhibition in vitro (endothelial cell): potent angiogenesis inhibitor
